Results: patent US4656161A, “Increasing the enteral absorbability of heparin or heparinoids” (BASF Aktiengesellschaft, priority 1983, dated 1987)

Tests used:
[1] = Heparin/heparinoid concentration in blood after oral administration of capsules to beagles (citrated plasma, chromogenic substrate); type: in vivo, beagle dogs; conditions: for heparin or heparinoid concentration in the blood, without surfactant (in words): without the addition of a surfactant; for heparin level in the blood, without surfactant: in the absence of added surfactant
Method: (§1) A. 2 of the capsules obtained as described in Examples 1a-1d or 3a-3b (total dose 28,000 IU of heparin or 700 mg of heparinoid) were administered orally to each of a number of beagles weighing about 7 kg. The concentration of active compound in the blood of the dogs was determined before and 30 minutes, 1 hour and 2, 3, 5, 8, 14 and 24 hours after the administration of heparin. The heparin was determined in citrated plasma, using a chromogenic substrate (cf. Thromb. Res. 8 (1976), 413 and Volume 2 of Reports, Thrombosis and Hemostasis Congress, Munster, 1982, Schattauer Verlag, Stuttgart, pages 238-246). The thrombin time was also determined (cf. Kleiner Gerinnungstatus, published by Behringwerke, 1982, page 40). The heparin or heparinoid concentration (c) in the blood and the quotient T of the thrombin time of the treated animals to that of the untreated animals reached their highest values after 2 hours.
(§2) Since, in contrast to heparin, heparinoids prolong the bleeding time (in this case the thrombin time) only slightly, if at all, they are not standardized on the basis of anticoagulant activity.

thrombin time = assay: Thrombin time after oral administration of capsules to beagles; type: in vivo, beagle dogs; conditions: without the addition of a surfactant
Method: as §1, §2

Substance | heparin or heparinoid concentration in the blood, without surfactant (in words) [1] | thrombin time, without surfactant (in words) (thrombin time) | heparin level in the blood, without surfactant [1] [IU/ml]
heparin [heparin used in Example 1b] | did not result in a measurable heparin or heparinoid concentration in the blood | did not change the thrombin time | 
heparin [heparin used in Example 1c] |  | no change in the thrombin time | 0.15
sodium pentosan polysulfate [heparinoid used in Example 3a] | did not result in a measurable heparin or heparinoid concentration in the blood | did not change the thrombin time | 
heparin [heparin used in Example 1d] |  | no change in the thrombin time | 0.25
mucopolysaccharide polysulfate [heparinoid used in Example 3b] | did not result in a measurable heparin or heparinoid concentration in the blood | did not change the thrombin time | 
heparin [heparin used in Example 1a] | did not result in a measurable heparin or heparinoid concentration in the blood | did not change the thrombin time | 
